Experimental data as given in patent US9943497B2, “Pharmaceutical composition for preventing or treating pulmonary fibrosis” (GACHON UNIVERSITY OF INDUSTRY-ACADEMIC COOPERATION …, priority 2013, dated 2018).

Assays:
Format in all cases: in vivo
[1] = test system: pulmonary fibrosis induced by administration of Bleomycin (BLM); experiment: Histological examination (H&E and Masson-trichrome staining, Image J) of lung tissue in pulmonary fibrosis-induced animals; conditions: BLM-treated C57BL/6 mice; oral, every day; SFN 50 μg/kg, Met 25 mg/kg, singly or together; lung tissue at 28 days; vs BLM alone
Procedure: In detail, C57BL/6 mice were administered with combination of BLM, SFN and metformin (Met) which is one of BG agents, and control groups and experimental groups were prepared: a control group that was orally administered with sterile physiological saline (SA) and orally administered with distilled water; an experimental group (BLM) that was administered with BLM and orally administered with distilled water; an experimental group (BLM+SFN) that was administered with BLM and orally administered with 50 μg/kg of SFN; an experimental group (BLM+MET) that was administered with BLM and orally administered with […] of Met; and an experimental group (BLM+SFN+MET) that was administered with BLM and orally administered with 50 μg/kg of SFN and 25 mg/kg of Met. […] The fixed lung tissues were stained by the H&E staining method and the Masson-trichrome staining method, and the stained lung tissues were evaluated by Image J assay to assess and compare lung damage and lung fibrosis (FIGS. 1a to 1c).

[2] = test system: TGF-β1 (transforming growth factor β1); experiment: Western blot analysis for TGF-β1 in lung tissue and serum samples; conditions: BLM-treated C57BL/6 mice; oral, every day; SFN 50 μg/kg, Met 25 mg/kg, singly or together; lung tissue and serum at 28 days; vs BLM alone
Procedure: (§1) In detail, C57BL/6 mice were administered with combination of BLM, SFN and metformin (Met) which is one of BG agents, and control groups and experimental groups were prepared: a control group that was orally administered with sterile physiological saline (SA) and orally administered with distilled water; an experimental group (BLM) that was administered with BLM and orally administered with distilled water; an experimental group (BLM+SFN) that was administered with BLM and orally administered with 50 μg/kg of SFN; an experimental group (BLM+MET) that was administered with BLM and orally administered with 25 mg/hg of Met; and an experimental group (BLM+SFN+MET) that was administered with BLM and orally administered with 50 μg/kg of SFN and 25 mg/kg of Met. At this time, C57BL/6 mice were administered with 2.5 unit of BLM by intratracheal injection under anesthesia at the experiment initiation day and 14 days, and the mice were administered with SFN and Met every day during the experimental period from the next day after the first administration of BLM, and the mice of the control group and experimental groups were raised for 28 days after the experiment initiation day.
The animal models of the control group and the experimental groups that were prepared in Example 1 and raised for 28 days were sacrificed. The lung tissues and serum samples were obtained from these animal models. […]

fibronectin = experiment: Western blot analysis for fibronectin in lung tissue and serum samples; conditions: BLM-treated C57BL/6 mice; oral, every day; SFN 50 μg/kg, Met 25 mg/kg, singly or together; lung tissue and serum at 28 days; vs BLM alone
Procedure: as §1
(§2) The lung tissues and serum samples were obtained from these animal models. […]

[3] = test system: AGE (advanced glycation end products); experiment: Western blot analysis, Ponceau staining and ELISA for AGE in lung tissue and serum samples; conditions: BLM-treated C57BL/6 mice; oral, every day; SFN 50 μg/kg, Met 25 mg/kg, singly or together; lung tissue and serum at 28 days; vs BLM alone
Procedure: as §1, §2

## C[S+]([O-])CCCCN=C=S (centres unmarked) [SFN, sulforaphane]
[1]
  level of fibrous tissue (damaged fibrous regions, H&E and Masson-trichrome staining): statistically significant reduction
[2]
  TGF-β1 levels (Western blot): reduced TGF-β1 levels
fibronectin
  fibronectin levels (Western blot): reduced fibronectin levels
[3]
  AGE level (Western blot, ELISA): reduced

## CN(C)C(=N)N=C(N)N [Met, metformin]
[1]
  level of fibrous tissue (damaged fibrous regions, H&E and Masson-trichrome staining): slightly reduced
[2]
  TGF-β1 levels (Western blot): reduced TGF-β1 levels
fibronectin
  fibronectin levels (Western blot): reduced fibronectin levels
[3]
  AGE level (Western blot, ELISA): slightly reduced AGE level
